Source: US20250017856A1, “CO-FORMULATION AND CO-DELIVERY OF IONIZABLE COLLOID FORMING DRUGS WITH NUCLEIC ACIDS” (THE GOVERNING COUNCIL OF THE UNIVERSITY OF TORONTO, priority 2023, published 2025)

What was measured:
[1] = RNA encapsulation efficiency (modified Quant-iT RiboGreen assay) and loading; assay type: physicochemical; details: FxNP
Excerpt: (§1) [NT] antisense (SEQ ID NO: 2): [NT] where “d” denotes a DNA base), siFLuc-2 (sense (SEQ ID NO: 3): [NT] antisense (SEQ ID NO: 4): [NT] where “d” denotes a DNA base and “m” indicates a 2'-O-methyl RNA base), sinLuc (sense (SEQ ID NO: 5): [NT] antisense SEQ ID NO: 6): [NT] where “d” denotes a DNA base), […]1 (sense (SEQ ID NO: 7): [NT] antisense (SEQ ID NO: 8): [NT] where “d” denotes a DNA base and “m” indicates a 2'-O-methyl RNA base), siNT (sense (SEQ ID NO: 9): [NT] antisense (SEQ ID NO: 10): [NT] where “d” denotes a DNA base and “m” indicates a 2'-O-methyl RNA base), mFLuc (EZ Cap Firefly Luciferase mRNA (5-moUTP), ApexBio), rRNA or RNA from Torula utilis yeast (T.U. RNA) was diluted in citrate buffer (50 or 25 mM, pH 4), malate buffer (25 mM, pH 4.0) or acetate buffer (25 mM, pH 4.0). A lipid/drug mix concentration of 5.5 mM was used with a total flow rate of 9 mL/min at a 3:1 ratio of aqueous to organic phase. […] After formulation, buffer exchange into PBS or Tris-buffered saline (TBS; pH 8.5) was performed using Amicon Ultra-4 centrifugal filters (molecular weight cut-off 10 kDa). Hydrodynamic diameter, polydispersity index (PDI), and scattering intensity were measured by dynamic light scattering (DLS) using a DynaPro Plate Reader II (Wyatt Technologies). The instrument was configured with a 60 mW 830 nm laser and a detector angle of 158°. A 25 μL sample of each formulation was pipetted into each well of a 384-well plate and measured with 20 acquisitions per sample at 25° C. […] Quant-iT RiboGreen reagent was added, and fluorescence intensity was quantified using a Tecan Infinite […] plate reader.

[2] = Hydrodynamic diameter and polydispersity index by dynamic light scattering; assay type: physicochemical; details: FxNP
Excerpt: as §1

[3] = Zeta potential (Malvern Zetasizer); assay type: physicochemical; details: FxNP
Method: Zeta potential was measured by diluting FXNPs in phosphate to an ion concentration of 1 mM and using a Malvern Zetasizer Nano ZS instrument.

[4] = ionizable compound (fulvestrant analog); cited from earlier work

CC12CCC3c4ccc(O)cc4CC(CCCCCCCCCS(=O)(CCCC(F)(F)C(F)(F)F)=NC(=O)CCN4CCCCC4)C3C1CCC2O (stereo not drawn) [7g]
Encapsulation efficiency (%) ([1]; siFLuc, DOPC): 96.6%
Small molecule drug mass % ([1]; siFLuc, DOPC): 56.0%
siRNA mass % ([1]; siFLuc, DOPC): 4.8%
Encapsulation efficiency (%) ([1]; siFLuc, DSPC): 94.7%
Small molecule drug mass % ([1]; siFLuc, DSPC): 56.0%
siRNA mass % ([1]; siFLuc, DSPC): 4.7%
Encapsulation efficiency (%) ([1]; sinLuc, DOPC): 94.9%
Small molecule drug mass % ([1]; sinLuc, DOPC): 56.0%
siRNA mass % ([1]; sinLuc, DOPC): 4.7%
Hydrodynamic diameter (nm) ([2]; siFLuc, DOPC): 186.2 nm
PDI ([2]; siFLuc, DOPC): 0.022
Hydrodynamic diameter (nm) ([2]; siFLuc, DSPC): 170.8 nm
PDI ([2]; siFLuc, DSPC): 0.076
Hydrodynamic diameter (nm) ([2]; sinLuc, DOPC): 181.8 nm
PDI ([2]; sinLuc, DOPC): 0.042
Zeta potential (mV) ([3]; siFLuc, DOPC): 3.39 mV
Zeta potential (mV) ([3]; siFLuc, DSPC): −4.92 mV
Zeta potential (mV) ([3]; sinLuc, DOPC): 0.01 mV
pKa [4]: 7.3

CC12CCC3c4ccc(O)cc4CC(CCCCCCCCCS(=O)(CCCC(F)(F)C(F)(F)F)=NC(=O)CCN4CCCC4)C3C1CCC2O (stereo not drawn) [7j]
Encapsulation efficiency (%) ([1]; siFLuc, DSPC): 72.0%
Small molecule drug mass % ([1]; siFLuc, DSPC): 56.2%
siRNA mass % ([1]; siFLuc, DSPC): 3.7%
Hydrodynamic diameter (nm) ([2]; siFLuc, DSPC): 337.1 nm
PDI ([2]; siFLuc, DSPC): 0.225
Zeta potential (mV) ([3]; siFLuc, DSPC): −3.56 mV
pKa [4]: 7.6

CC12CCC3c4ccc(O)cc4CC(CCCCCCCCCS(=O)(CCCC(F)(F)C(F)(F)F)=NC(=O)C[N+](C)(C)C)C3C1CCC2O (stereo not drawn) [7l]
Encapsulation efficiency (%) ([1]; siFLuc, DSPC): 87.6%
Small molecule drug mass % ([1]; siFLuc, DSPC): 54.9%
siRNA mass % ([1]; siFLuc, DSPC): 4.5%
Hydrodynamic diameter (nm) ([2]; siFLuc, DSPC): 539.2 nm
PDI ([2]; siFLuc, DSPC): Multimodal
Zeta potential (mV) ([3]; siFLuc, DSPC): −2.05 mV

CC12CCC3c4ccc(O)cc4CC(CCCCCCCCCS(=O)(CCCC(F)(F)C(F)(F)F)=NC(=O)CN4CCOCC4)C3C1CCC2O (stereo not drawn) [7a]
Encapsulation efficiency (%) ([1]; siFLuc, DOPC): 58.7%
Small molecule drug mass % ([1]; siFLuc, DOPC): 56.7%
siRNA mass % ([1]; siFLuc, DOPC): 3.0%
Encapsulation efficiency (%) ([1]; siFLuc, DSPC): 69.9%
Small molecule drug mass % ([1]; siFLuc, DSPC): 56.3%
siRNA mass % ([1]; siFLuc, DSPC): 3.6%
Encapsulation efficiency (%) ([1]; sinLuc, DOPC): 79.5%
Small molecule drug mass % ([1]; sinLuc, DOPC): 56.1%
siRNA mass % ([1]; sinLuc, DOPC): 4.0%
Hydrodynamic diameter (nm) ([2]; siFLuc, DOPC): 245.9 nm
PDI ([2]; siFLuc, DOPC): 0.035
Hydrodynamic diameter (nm) ([2]; siFLuc, DSPC): 149.3 nm
PDI ([2]; siFLuc, DSPC): 0.022
Hydrodynamic diameter (nm) ([2]; sinLuc, DOPC): 243.5 nm
PDI ([2]; sinLuc, DOPC): 0.014
Zeta potential (mV) ([3]; siFLuc, DOPC): −11.27 mV
Zeta potential (mV) ([3]; siFLuc, DSPC): −12.97 mV
Zeta potential (mV) ([3]; sinLuc, DOPC): −11.80 mV
pKa [4]: 5.1

CN1CCN(CC(=O)N=S(=O)(CCCCCCCCCC2Cc3cc(O)ccc3C3CCC4(C)C(O)CCC4C23)CCCC(F)(F)C(F)(F)F)CC1 (stereo not drawn) [7i]
Encapsulation efficiency (%) ([1]; siFLuc, DSPC): 52.8%
Small molecule drug mass % ([1]; siFLuc, DSPC): 57.2%
siRNA mass % ([1]; siFLuc, DSPC): 2.7%
Hydrodynamic diameter (nm) ([2]; siFLuc, DSPC): 338.6 nm
PDI ([2]; siFLuc, DSPC): 0.218
Zeta potential (mV) ([3]; siFLuc, DSPC): −3.98 mV
pKa [4]: 7.4

CC12CCC3c4ccc(O)cc4CC(CCCCCCCCCS(=O)(CCCC(F)(F)C(F)(F)F)=NC(=O)CCN4CCOCC4)C3C1CCC2O (stereo not drawn) [7d]
Encapsulation efficiency (%) ([1]; siFLuc, DOPC): 80.3%
Small molecule drug mass % ([1]; siFLuc, DOPC): 56.5%
siRNA mass % ([1]; siFLuc, DOPC): 4.0%
Encapsulation efficiency (%) ([1]; siFLuc, DSPC): 88.3%
Small molecule drug mass % ([1]; siFLuc, DSPC): 56.3%
siRNA mass % ([1]; siFLuc, DSPC): 4.4%
Encapsulation efficiency (%) ([1]; sinLuc, DOPC): 76.4%
Small molecule drug mass % ([1]; sinLuc, DOPC): 56.6%
siRNA mass % ([1]; sinLuc, DOPC): 3.8%
Hydrodynamic diameter (nm) ([2]; siFLuc, DOPC): 199.0 nm
PDI ([2]; siFLuc, DOPC): 0.066
Hydrodynamic diameter (nm) ([2]; siFLuc, DSPC): 154.9 nm
PDI ([2]; siFLuc, DSPC): 0.036
Hydrodynamic diameter (nm) ([2]; sinLuc, DOPC): 224.8 nm
PDI ([2]; sinLuc, DOPC): 0.093
Zeta potential (mV) ([3]; siFLuc, DOPC): −8.00 mV
Zeta potential (mV) ([3]; siFLuc, DSPC): −11.83 mV
Zeta potential (mV) ([3]; sinLuc, DOPC): −14.27 mV
pKa [4]: 5.7

CC12CCC3c4ccc(O)cc4CC(CCCCCCCCCS(=O)(CCCC(F)(F)C(F)(F)F)=NC(=O)CN)C3C1CCC2O (stereo not drawn) [7m]
Encapsulation efficiency (%) ([1]; siFLuc, DSPC): 88.1%
Small molecule drug mass % ([1]; siFLuc, DSPC): 53.4%
siRNA mass % ([1]; siFLuc, DSPC): 4.7%
Hydrodynamic diameter (nm) ([2]; siFLuc, DSPC): 447.8 nm
PDI ([2]; siFLuc, DSPC): Multimodal
Zeta potential (mV) ([3]; siFLuc, DSPC): −6.62 mV
pKa [4]: 8.1
